The results in this text go back to patent publication US9265189B2, “Method for reducing damage by harmful organisms in corn cultivation” (SUMITOMO CHEMICAL COMPANY, LIMITED, priority 2012, dated 2016).

What all share (assay type): in vivo
Experiment [1] concerns Rhopalosiphum padi. The experiment can be described thus: Green house cup test, furrow drip treatment, Rhopalosiphum padi on corn (Example 6). Conditions: insects released 10 days after seeding, counted 7 days after insect releasing, 100×(A−B)/A. On the procedure:
A plastic cup (diameter 7 cm) having a volume of 390 ml was filled with a soil, a furrow was formed to a depth of 3 cm from the soil surface, the formed furrow was drip-treated with each of water-diluted liquids of a thiamethoxam water soluble powder (using a 10.0% preparation, trade name: Actara Water Soluble Powder, manufactured by Syngenta Japan K.K.), an imidacloprid water dispersible granule (using a 50.0% preparation, trade name: Admire Water dispersible Granule, manufactured by Bayer CropScience K.K.) and a thiacloprid water dispersible granule (using a 30.0% preparation, trade name: Bariard Water Dispersible Granule, manufactured by Bayer CropScience K.K.) so as to achieve the application amount described in Table 6, and then seeded with corn (variety name: Pioneer 32K61, hybrid variety) at a rate of one grain per cup, and the soil on the side of the furrow was gathered together to close the furrow. Corn was grown in a usual green house.
10 days after seeding of corn, 10 insects of Rhopalosiphum padi were released in each cup. This is called a treatment section.
On the other hand, except that a chemical was not applied, corn was grown in a usual green house in the same manner as in the treatment section, and 10 insects of Rhopalosiphum padi were released. This is called a non-chemical-treatment section.
7 days after insect releasing, the number of Rhopalosiphum padi was investigated, and a preventive value was calculated using the following equation. The results are shown in Table 6. preventive value=100×(A−B)/A
A: number of insects during investigation of non-chemical-treatment section
B: number of insects during investigation of treatment section

Experiment [2] deals with Diabrotica virgifera virgifera and Agriotes lineatus. The experiment can be described thus: Field test, lodge rate, imidacloprid and cyprosulfamide in-furrow (Example 10). Conditions: imidacloprid 120 g/ha together with cyprosulfamide 15 g/ha in-furrow spray 125 L/ha, thiuram-treated seed, 165 days after application; example in present tense. The text has this: A chemical fertilizer (N:P:K=15:15:15) is applied to the soil surface of a cultivated land at 300 kg/ha, and the cultivated land is then plowed. 7 days after fertilization, for suppressing generation of weeds, the soil surface of the whole cultivated land is spray-treated with a mixed liquid containing thiencarbazone-methyl and isoxaflutole, each of which being a herbicide, at 150 L/ha so that the application amounts of thiencarbazone-methyl and isoxaflutole are 9.2 g/ha and 23 g/ha, respectively. 21 days after fertilization, using a pneumatic seeder (disk furrow opener) equipped with a power sprayer, a cultivated land is ditched at intervals of 75 cm to a depth of 3 cm from the soil surface, and the furrow is seeded with corn (Zea Mays; hybrid variety). The furrow is seeded at intervals of 20 cm using, as a seed of corn, one treated with thiuram. A seeding density of corn is 70000 seeds/ha. […] 165 days after application of the aqueous suspension of imidacloprid, the number of plants of corn lodged due to damage by Diabrotica virgifera virgifera and Agriotes lineatus in the furrows of the treatment section and the non-treatment section, for which the number of plants of corn germinated is investigated, is investigated, a lodge rate is calculated in accordance with the following equation, and then an average lodge rate for the four investigation sections is determined.

For experiment [3] the test system is unchanged. The experiment can be described thus: Field test, lodge rate, imidacloprid in-furrow, herbicides plus cyprosulfamide on soil (Example 8). The conditions noted are these: imidacloprid 120 g/ha in-furrow spray 125 L/ha, thiuram-treated seed, 165 days after application; example in present tense. The text has this: A chemical fertilizer (N:P:K=15:15:15) is applied to the soil surface of a cultivated land at 300 kg/ha, and the cultivated land is then plowed. 7 days after fertilization, for suppressing generation of weeds, the soil surface of the whole cultivated land is spray-treated with a mixed liquid containing thiencarbazone-methyl and isoxaflutole, each of which being a herbicide, and cyprosulfamide which is a safener at 150 L/ha so that the application amounts of thiencarbazone-methyl, isoxaflutole and cyprosulfamide are 9.2 g/ha, 23 g/ha and 15 g/ha, respectively. 21 days after fertilization, using a pneumatic seeder (disk furrow opener) equipped with a power sprayer, a cultivated land is ditched at intervals of 75 cm to a depth of 3 cm from the soil surface, and the furrow is seeded with corn (Zea Mays; hybrid variety). […] 165 days after application of the aqueous suspension of imidacloprid, the number of plants of corn lodged due to damage by Diabrotica virgifera virgifera and Agriotes lineatus in the furrows of the treatment section and the non-treatment section, for which the number of plants of corn germinated is investigated, is investigated, a lodge rate is calculated in accordance with the following equation, and then an average lodge rate for the four investigation sections is determined.

With `O=[N+]([O-])NC1=NCCN1Cc1ccc(Cl)nc1` [Imidacloprid], the Preventive value in experiment [1] (application amount 20 g/ha) and in experiment [1] (application amount 200 g/ha) was 100 throughout. Also, the “Lodge rate compared to non-treatment section” value in experiment [2] and in experiment [3] was “low lodge rate as compared to the non-treatment section” in each case.

As to `N#C/N=C1\SCCN1Cc1ccc(Cl)nc1` [Thiacloprid], the Preventive value in experiment [1] (application amount 20 g/ha) and in experiment [1] (application amount 200 g/ha) was 100 each time.

With `CN1COCN(Cc2cnc(Cl)s2)/C1=N\[N+](=O)[O-]` [Thiamethoxam], the Preventive value in experiment [1] (application amount 20 g/ha) and in experiment [1] (application amount 200 g/ha) was 100 throughout.
